Laboratory results taken from ChEMBL document CHEMBL1811808, “A mechanism-based potent sirtuin inhibitor containing Nε-thiocarbamoyl-lysine (TuAcK)” (Bioorg Med Chem Lett, 2011).
Activity calls are given as the source filed them. The rule behind the calls is not given here. Square brackets hold non-standard residues; d marks the D form. Peptide text beside a SMILES is read from it. Asu = N[C@@H](CCCCCC(=O)O)C(=O)O

Assays:
[1] = target: T1, NAD-dependent protein deacetylase sirtuin-1 (Homo sapiens, UniProt Q96EB6); assay: Inhibition of human GST-tagged SIRT1 using H2NHK-AcK-LM-COOH as substrate assessed as enzymatic deacetylation product formation after 5 mins by HPLC analysis
T1 sequence (Q96EB6 whole entry): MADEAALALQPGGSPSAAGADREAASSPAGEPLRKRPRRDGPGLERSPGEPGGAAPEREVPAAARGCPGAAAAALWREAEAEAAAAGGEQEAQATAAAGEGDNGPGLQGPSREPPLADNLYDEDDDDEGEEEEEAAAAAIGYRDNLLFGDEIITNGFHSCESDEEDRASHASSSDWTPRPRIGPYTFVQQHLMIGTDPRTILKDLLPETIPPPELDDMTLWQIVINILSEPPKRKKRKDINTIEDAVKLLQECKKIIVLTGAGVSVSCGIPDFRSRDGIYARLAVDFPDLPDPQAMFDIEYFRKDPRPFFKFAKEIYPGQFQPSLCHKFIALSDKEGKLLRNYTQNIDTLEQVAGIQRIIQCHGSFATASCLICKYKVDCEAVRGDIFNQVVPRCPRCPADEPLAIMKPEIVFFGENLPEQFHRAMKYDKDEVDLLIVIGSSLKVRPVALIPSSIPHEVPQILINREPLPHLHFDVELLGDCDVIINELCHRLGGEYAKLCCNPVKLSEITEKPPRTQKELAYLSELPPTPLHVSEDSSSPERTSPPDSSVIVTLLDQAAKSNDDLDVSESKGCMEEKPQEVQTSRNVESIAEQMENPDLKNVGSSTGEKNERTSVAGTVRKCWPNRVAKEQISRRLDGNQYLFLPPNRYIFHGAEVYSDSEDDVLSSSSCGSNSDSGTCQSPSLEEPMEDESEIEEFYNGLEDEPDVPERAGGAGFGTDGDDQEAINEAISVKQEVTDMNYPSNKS

[2] = target: T2, NAD-dependent protein deacetylase sirtuin-1 (Homo sapiens) (UniProt Q96EB6); assay: Inhibition of SIRT1 in human HCT116 cells expressing wild type p53 assessed as increase in p53 acetylation at K382 after 10 hr by Western blot analysis; conditions: HCT-116
T2 sequence (whole entry): T1 sequence (Q96EB6 whole entry)

[3] = target: T2, NAD-dependent protein deacetylase sirtuin-1 (Homo sapiens); assay: Activity at SIRT1 assessed as formation of alkylamidate intermediate of compound at 0.6 mM after 1 min by MALDI-MS analysis in presence of NAD+
[4] = target: T3, NAD-dependent protein deacetylase sirtuin-2 (Homo sapiens, UniProt Q8IXJ6); assay: Inhibition of human full length SIRT2 using H2N-MPSD-AcK-TIGG-COOH as substrate assessed as enzymatic deacetylation product formation after 60 mins by HPLC analysis
T3 sequence (Q8IXJ6 whole entry): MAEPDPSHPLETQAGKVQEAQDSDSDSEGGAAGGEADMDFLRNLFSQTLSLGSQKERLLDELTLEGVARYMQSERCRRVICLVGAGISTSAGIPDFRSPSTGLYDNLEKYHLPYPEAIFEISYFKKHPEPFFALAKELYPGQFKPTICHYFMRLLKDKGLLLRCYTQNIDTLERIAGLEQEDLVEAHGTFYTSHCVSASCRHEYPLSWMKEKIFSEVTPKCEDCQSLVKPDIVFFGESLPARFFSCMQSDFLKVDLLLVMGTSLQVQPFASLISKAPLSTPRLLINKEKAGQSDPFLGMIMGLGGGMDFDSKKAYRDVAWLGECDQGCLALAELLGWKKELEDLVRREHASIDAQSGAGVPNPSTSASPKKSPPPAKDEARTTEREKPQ

SMILES	IC50 [1]	inhibition [2]	Activity [3]	IC50 [4]
CC(=O)NCCC[C@H](NC(=O)[C@H](CCCCNC(N)=S)NC(=O)[C@H](CCCNC(C)=O)NC(C)=O)C(N)=O	89.5 µM	Dose-dependent effect	Active	
CC(=O)NCCCC[C@H](NC(=O)[C@H](CCCCCC(N)=O)NC(=O)[C@H](CCCCNC(C)=O)NC(C)=O)C(N)=O (Ac-Lys(Ac)-[Asu](NH2)-Lys(Ac)-NH2)	290 µM			190 µM
